Assay results taken from ChEMBL document CHEMBL5137049, “Discovery of a Novel Small-Molecule Inhibitor Disrupting TRBP-Dicer Interaction against Hepatocellular Carcinoma via the Modulation of microRNA Biogenesis” (J Med Chem, 2022).
pIC50: −log10 of the molar value. Calls of active or inactive are those of the source. The calls are words filed in the database; no cut-off is given here.

Assays:
[1] = Toxicity in SCID mouse xenografted with human MHCC97-L cells assessed as change in body weight at 10 to 50 mg/kg, ip administered every 2 days for 4 weeks and measured on alternate days; assay type: organism-based; conditions: in vivo, 672 h, dose 10-50 mg/kg
SK-HEP1 [2] = experiment: Downregulation of mature miR-21 expression in human SK-HEP1 cells at 10 uM incubated for 24 hrs; assay type: functional, cell-based
SK-HEP1 [3] = experiment: Upregulation of let-7 expression in human SK-HEP1 cells at 10 uM by qRT-PCR analysis; assay type: functional, cell-based
HeLa [4] = experiment: Upregulation of pri-miR-214 in human HeLa cells at 10 uM incubated for 6 hrs by qRT-PCR analysis; assay type: functional, cell-based
HepG2 [5] = experiment: Upregulation of pri-miR-21 in human HepG2 cells at 10 uM incubated for 6 hrs by qRT-PCR analysis; assay type: functional, cell-based
HepG2 [6] = experiment: Upregulation of pri-miR-221 in human HepG2 cells at 10 uM incubated for 6 hrs by qRT-PCR analysis; assay type: functional, cell-based
Mus musculus [7] = experiment: Upregulation of E-cadherin expression in liver of SCID mouse xenografted with human SK-HEP1 cells at 10 to 50 mg/kg, ip administered every 2 days for 4 weeks by immunohistochemical staining analysis; assay type: functional, organism-based; conditions: dose 10-50 mg/kg
[8] = Acute toxicity in KM mouse assessed as effect on brain at 100 mg/kg, ip administered for 7 consecutive days by hematoxyin-eosin staining based analysis; assay type: organism-based; conditions: in vivo, 168 h, time 7 day
MHCC97-L [9] = experiment: Antitumor activity against human MHCC97-L cells xenografted in SCID mouse assessed as reduction in tumor proliferation at 10 to 50 mg/kg, ip administered every 2 days for 4 weeks; assay type: functional, organism-based; conditions: dose 10-50 mg/kg
MHCC97-L [10] = experiment: Inhibition of cell migration in human MHCC97-L cells at 1 to 25 uM measured after 24 hrs by crystal violet staining based transwell assay; assay type: functional; conditions: dose 1-25 µM
HeLa [11] = experiment: Upregulation of pre-miR-214 in human HeLa cells at 10 uM incubated for 6 hrs by qRT-PCR analysis; assay type: functional, cell-based
[12] = Acute toxicity in KM mouse assessed as effect on kidney at 100 mg/kg, ip administered for 7 consecutive days by hematoxyin-eosin staining based analysis; assay type: organism-based; conditions: in vivo, 168 h, time 7 day
Homo sapiens = organism: Homo sapiens; experiment: Effect on PACT-Dicer interaction (unknown origin) assessed as increase in binding of PACT to Dicer at 1 to 25 uM by Western blotting analysis; conditions: dose 1-25 µM
HepG2 [13] = experiment: Downregulation of miR-21 expression in human HepG2 cells at 10 uM incubated for 6 hrs by qRT-PCR analysis; assay type: functional
HCCLM3 [14] = experiment: Inhibition of cell invasion in human HCLLM3 cells at 1 to 25 uM measured after 24 hrs by crystal violet staining based transwell assay; assay type: functional; conditions: dose 1-25 µM
HeLa [15] = experiment: Downregulation of miR-155 expression in human HeLa cells at 10 uM incubated for 6 hrs by qRT-PCR analysis; assay type: functional
HeLa [16] = experiment: Upregulation of pri-miR-155 in human HeLa cells at 10 uM incubated for 6 hrs by qRT-PCR analysis; assay type: functional, cell-based
[17] = Toxicity in SCID mouse xenografted with human MHCC97-L cells assessed as effect on heart at 10 to 50 mg/kg, ip administered every 2 days for 4 weeks by hematoxyin-eosin staining based analysis; assay type: organism-based; conditions: in vivo, 672 h, dose 10-50 mg/kg
HeLa [18] = experiment: Upregulation of pri-miR-30a in human HeLa cells at 10 uM incubated for 6 hrs by qRT-PCR analysis; assay type: functional, cell-based
SK-HEP1 [19] = experiment: Antitumor activity against human SK-HEP1 cells xenografted in SCID mouse assessed as reduction in number of intrahepatic migration lesions at 10 to 25 mg/kg, ip administered every 2 days for 4 weeks by hematoxyin-eosin staining based analysis; assay type: functional, organism-based; conditions: dose 10-25 mg/kg
SK-HEP1 [20] = experiment: Downregulation of miR-135 expression in human SK-HEP1 cells at 10 uM by qRT-PCR analysis; assay type: functional, cell-based
HeLa [21] = experiment: Upregulation of pre-miR-21 in human HeLa cells at 10 uM incubated for 6 hrs by qRT-PCR analysis; assay type: functional, cell-based
HeLa [22] = experiment: Inhibition of microRNA in human HeLa cells transfected with pCI-neo-luciferase-miR-21 plasmid assessed as change in luciferase signal by measuring relative luciferase unit by luciferase reporter assay; assay type: cell-based
[23] = Inhibition of TRBP (unknown origin) - recombinant Dicer (unknown origin) protein-protein interaction incubated for 3 hrs by GST pull-down assay; design: species or system Homo sapiens
SK-HEP1 [24] = experiment: Upregulation of E-cadherin expression in human SK-HEP1 cells at 1 to 25 uM by Western blotting analysis; assay type: functional, cell-based; conditions: dose 1-25 µM
SK-HEP1 [25] = experiment: Downregulation of N-cadherin expression in human SK-HEP1 cells at 1 to 25 uM by Western blot analysis; assay type: functional, cell-based; conditions: dose 1-25 µM
SK-HEP1 [26] = experiment: Downregulation of PTEN protein expression in pCMV3-TRBP transfected human SK-HEP1 cells at 10 uM incubated for 24 hrs by Western blotting analysis; assay type: functional, cell-based
SK-HEP1 [27] = experiment: Downregulation of vimentin expression level in TRBP siRNA transfected human SK-HEP1 cells incubated for 48 hrs by Western blotting analysis; assay type: functional, cell-based
HeLa [28] = experiment: Upregulation of pre-miR-30a in human HeLa cells at 10 uM incubated for 6 hrs by qRT-PCR analysis; assay type: functional, cell-based
[29] = Acute toxicity in KM mouse assessed as effect on liver at 100 mg/kg, ip administered for 7 consecutive days by hematoxyin-eosin staining based analysis; assay type: organism-based; conditions: in vivo, 168 h, time 7 day
HCCLM3 [30] = experiment: Downregulation of miR-135 expression in human HCCLM3 cells at 10 uM by qRT-PCR analysis; assay type: functional, cell-based
SK-HEP1 [31] = experiment: Downregulation of N-cadherin expression level in TRBP siRNA transfected human SK-HEP1 cells incubated for 48 hrs by Western blotting analysis; assay type: functional, cell-based
SK-HEP1 [32] = experiment: Upregulation of PTEN protein expression in human SK-HEP1 cells incubated for 24 hrs by Western blotting analysis; assay type: functional, cell-based; conditions: dose 1-50 µM, DDE = dose-dependent effect
Mus musculus [33] = experiment: Downregulation of beta-catenin expression in liver of SCID mouse xenografted with human SK-HEP1 cells at 10 to 50 mg/kg, ip administered every 2 days for 4 weeks by immunohistochemical staining analysis; assay type: functional, organism-based; conditions: dose 10-50 mg/kg
MHCC97-L [34] = experiment: Downregulation of miR-18a expression in human MHCC97-L cells at 10 uM by qRT-PCR analysis; assay type: functional, cell-based
MHCC97-L [35] = experiment: Inhibition of cell migration in human MHCC97-L cells assessed as reduction of cell mobility at 1 to 25 uM measured at 24 hrs by well scratch method; assay type: functional, cell-based; conditions: dose 1-25 µM
HepG2 [36] = experiment: Upregulation of pre-miR-122 in human HepG2 cells at 10 uM incubated for 6 hrs by qRT-PCR analysis; assay type: functional, cell-based
HeLa [37] = experiment: Upregulation of pri-miR-21 in human HeLa cells at 10 uM incubated for 6 hrs by qRT-PCR analysis; assay type: functional, cell-based
HepG2 [38] = experiment: Downregulation of miR-221 expression in human HepG2 cells at 10 uM incubated for 6 hrs by qRT-PCR analysis; assay type: functional
HCCLM3 [39] = experiment: Upregulation of let-7 expression in human HCCLM3 cells at 10 uM by qRT-PCR analysis; assay type: functional, cell-based

In the case of `CCOC(=O)c1nc(-c2ccc(OC)cc2)oc1C`, the Activity [1] was “Non-Toxic”, the Activity (SK-HEP1 [2]) was “Active” and the Activity (SK-HEP1 [3]) was “Active”. For the same compound, the Activity (HeLa [4]) was “Active”, the Activity (HepG2 [5]) was “Active” and the Activity (HepG2 [6]) was “Active”. For the same compound, the Activity (Mus musculus [7]) was “Active”, the Activity [8] was “Non-Toxic” and the Activity (MHCC97-L [9]) was “Active”. The inhibition (MHCC97-L [10]) was “Active”, the Activity (HeLa [11]) was “Active” and the Activity [12] was “Non-Toxic”. For the same compound, the Activity (Homo sapiens) was “Active”, the Activity (HepG2 [13]) was 60% and the inhibition (HCCLM3 [14]) was “Active”. The Activity (HeLa [15]) was 60%, the Activity (HeLa [16]) was “Active” and the Activity [17] was “Non-Toxic”. For the same compound, the Activity (HeLa [18]) was “Active”, the Activity (SK-HEP1 [19]) was “Active” and the Activity (SK-HEP1 [20]) was “Active”. The Activity (HeLa [21]) was “Active”, the RLU (HeLa [22]) was 5.68 and the pIC50 [23] was 4.91. For the same compound, the Activity (SK-HEP1 [24]) was “Active”, the Activity (SK-HEP1 [25]) was “Active” and the Activity (SK-HEP1 [26]) was “Active”. For the same compound, the Activity (SK-HEP1 [27]) was “Active”, the Activity (HeLa [28]) was “Active” and the Activity [29] was “Non-Toxic”. The Activity (HCCLM3 [30]) was “Active”, the Activity (SK-HEP1 [31]) was “Active” and the Activity (SK-HEP1 [32]) was “Dde”. For the same compound, the Activity (Mus musculus [33]) was “Active”, the Activity (MHCC97-L [34]) was “Active” and the inhibition (MHCC97-L [35]) was “Active”. For the same compound, the Activity (HepG2 [36]) was “Active”, the Activity (HeLa [37]) was “Active” and the Activity (HepG2 [38]) was 60%. The Activity (HCCLM3 [39]) was “Active”.
